Patent US20260272797A1, “FRAGRANCE COMPOSITION” (GIVAUDAN SA, priority 2023, published 2026)

How the values were obtained:
[1] = Impact of fragrance ingredients on scalp malodour counteractancy of 80 fragrance compositions (Example 2 protocol, statistical presence); details: series of 80 fragrance compositions
Method: In a second set of experiments, the impact of these fragrance ingredients on the scalp malodour counteractancy of a fragrance composition was assessed. The scalp malodour counteractancy of a series of 80 fragrance compositions was assessed by performing the evaluation protocol described in Example 2. […] Ingredients that were statistically more present in fragrances having a high malodour counteractancy were assigned a positive status, whereas ingredients that were statistically more present in compositions having a low malodour counteractancy were assigned a negative status.

[2] = Gas-phase evaluation of each fragrance ingredient alone against model scalp malodour, MiniVAS device, panel of 5 experts; details: for Scalp MOC of ingredient alone: expert description
Method: In a first set of experiments, the scalp malodour counteractancy of 173 fragrance ingredients was evaluated by panel of 5 experts.
The evaluation was performed in the gas phase, using a MiniVAS™ device (ex Givaudan SA). This device is a regulating means that comprises a plurality of channels adapted to convey a gas (more particularly air) through cartridges, each cartridge containing a fragrance ingredient adsorbed onto an adsorbent. The air flows coming from the different cartridges are admixed and conveyed to the user's nose through a tubing fitted with an olfactometer funnel. Thus, by opening and closing channels and maintaining these opened and closed, respectively, for predetermined times, the regulating means can determine which fragrance ingredients and how much thereof are conveyed and when, and thus alter the nature of the fragrance perceived by the user. A description of the device can be found in WO2014154909A1, page 2, line 11 to page 4, line 7, and in H. R. Gygax et al. “Evolution of Real Time Aroma Creation at Givaudan”, poster presented at the 12th Weurman Flavour Research Symposium. July 2008. Interlaken, Switzerland; DOI: 10.13140/2.1.1924.0641.
For the sake of the present evaluation, one cartridge contained the scalp malodour (in the form of a model malodour) and each fragrance ingredient was assigned to another cartridge. The malodour counteractancy of each fragrance ingredient was evaluated separately against the scalp malodour. A constant air flow rate of 50 ml/min was used for all measurements. The perceived malodour intensity, as well as the fragrance intensity, were ranked on a scale of 1-5 (1=barely noticeable, 2=weak, 3=medium, 4=strong and 5=very strong).

[3] = Table 4, air flow 50 ml/min, scale of 1-5
[4] = Table 3, air flow 50 ml/min, scale of 1-5 (1=barely noticeable, 5=very strong)

## CC(=O)OCCC(C)CCC=C(C)C (stereo not drawn) [3,7-dimethyloct-6-en-1-yl acetate]
[1]; Table 4
  Impact on scalp MOC of fragrance composition: Negative
[2]; [3]
  MO intensity: 2
[2]; Table 4, gas phase
  Scalp MOC of ingredient alone: Low coverage

## CCOC(=O)CC1(C)OCCO1 [ethyl 2-(2-methyl-1,3-dioxolan-2-yl)acetate]
[1]; Table 3
  Impact on scalp MOC of fragrance composition: Positive
[2]; [4]
  MO intensity: 2.3

## CC(=O)OCCC1=CCC2CC1C2(C)C (stereo not drawn) [2-(6,6-dimethylbicyclo[3.1.1]hept-2-en-2-yl)ethyl acetate]
[1]; Table 3
  Impact on scalp MOC of fragrance composition: Positive
[2]; [4]
  MO intensity: 2

## CCC(=O)O[C@H]1CC2CC1[C@H]1CC=C[C@@H]21 (stereo partly drawn) [(3aR,6S,7aS)-3a,4,5,6,7,7a-hexahydro-1H-4,7-methanoinden-6-yl propanoate]
[1]; Table 4
  Impact on scalp MOC of fragrance composition: Negative
[2]; [3]
  MO intensity: 1.3

## CC1=CC(C)C(C=O)CC1 (stereo not drawn) [2,4-dimethylcyclohex-3-ene-1-carbaldehyde]
[1]; Table 4
  Impact on scalp MOC of fragrance composition: Negative
[2]; [3]
  MO intensity: 1

## C/C=C/c1ccc(OC)c(OC)c1 [(E)-1,2-dimethoxy-4-(prop-1-en-1-yl)benzene]
[1]; Table 4
  Impact on scalp MOC of fragrance composition: Negative
[2]; [3]
  MO intensity: 3.3

## O=C(OC1CCCCC1)c1ccccc1O [cyclohexyl 2-hydroxybenzoate]
[1]; Table 3
  Impact on scalp MOC of fragrance composition: Positive
[2]; [4]
  MO intensity: 1
[2]; Table 3, gas phase
  Scalp MOC of ingredient alone: No effect

## CC(C)C1CCC(CO)CC1 (stereo not drawn) [(4-isopropylcyclohexyl)methanol]
[1]; Table 3
  Impact on scalp MOC of fragrance composition: Positive
[2]; [4]
  MO intensity: 3

## COc1ccc(CC(C)C=O)cc1 (stereo not drawn) [3-(4-methoxyphenyl)-2-methylpropanal]
[1]; Table 3
  Impact on scalp MOC of fragrance composition: Positive
[2]; [4]
  MO intensity: 1
[2]; Table 3, gas phase
  Scalp MOC of ingredient alone: No effect

## C/C=C(\CC)CCC(C)CCO (stereo not drawn) [(E)-6-ethyl-3-methyloct-6-en-1-ol]
[1]; Table 3
  Impact on scalp MOC of fragrance composition: Positive
[2]; [4]
  MO intensity: 3

## C=CCOC(=O)CCC1CCCCC1 [prop-2-enyl 3-cyclohexylpropanoate]
[1]; Table 4
  Impact on scalp MOC of fragrance composition: Negative
[2]; [3]
  MO intensity: 1.5

## CC(=O)OCCc1ccccc1 [2-phenylethyl acetate]
[1]; Table 4
  Impact on scalp MOC of fragrance composition: Negative
[2]; [3]
  MO intensity: 1

## CC1=CC(C)C(C=O)CC1 (stereo not drawn) [2,4-dimethylcyclohex-3-enecarbaldehyde]
[2]; [3]
  MO intensity: 3.8
[2]; Table 4, gas phase
  Scalp MOC of ingredient alone: Good coverage

## CC1COCc2cc3c(cc21)C(C)(C)C(C)C3(C)C (stereo not drawn) [4,6,6,7,8,8-hexamethyl-1,3,4,6,7,8-hexahydrocyclopenta[g]isochromene]
[1]; Table 3
  Impact on scalp MOC of fragrance composition: Positive
[2]; [4]
  MO intensity: 3

## CC1=CCC(/C=C/C(C)C(C)O)C1(C)C (stereo not drawn) [(E)-3-methyl-5-(2,2,3-trimethylcyclopent-3-en-1-yl)pent-4-en-2-ol]
[1]; Table 3
  Impact on scalp MOC of fragrance composition: Positive
[2]; [4]
  MO intensity: 4.3

## CCOC(=O)C(C)C [ethyl 2-methylpropanoate]
[1]; Table 3
  Impact on scalp MOC of fragrance composition: Positive
[2]; [4]
  MO intensity: 1
[2]; Table 3, gas phase
  Scalp MOC of ingredient alone: No effect

## CCOc1cc(C)ccc1O [2-ethoxy-4-methylphenol]
[1]; Table 3
  Impact on scalp MOC of fragrance composition: Positive
[2]; [4]
  MO intensity: 2.8

## O=CCC/C=C1\CC2CC1[C@H]1CCC[C@@H]21 (stereo partly drawn) [(E)-4-((3aS,7aS)-hexahydro-1H-4,7-methanoinden-5(6H)-ylidene)butanal]
[1]; Table 3
  Impact on scalp MOC of fragrance composition: Positive
[2]; [4]
  MO intensity: 2.5

## Cc1ccc2c(c1)OCC(=O)CO2 [8-methyl-1,5-benzodioxepin-3-one]
[1]; Table 3
  Impact on scalp MOC of fragrance composition: Positive
[2]; [4]
  MO intensity: 3.5

## CC/C=C\CCOC(=O)c1ccccc1 [(Z)-hex-3-en-1-yl benzoate]
[1]; Table 4
  Impact on scalp MOC of fragrance composition: Negative
[2]; [3]
  MO intensity: 2
[2]; Table 4, gas phase
  Scalp MOC of ingredient alone: Low coverage

## CCCCCCCCCC(C)C=O (stereo not drawn) [2-methylundecanal]
[1]; Table 3
  Impact on scalp MOC of fragrance composition: Positive
[2]; [4]
  MO intensity: 3.5

## CC(CCO)CCc1ccccc1 (stereo not drawn) [3-methyl-5-phenylpentan-1-ol]
[1]; Table 3
  Impact on scalp MOC of fragrance composition: Positive
[2]; [4]
  MO intensity: 2

## C/C=C/C(=O)C1C(C)=CCCC1(C)C (stereo not drawn) [(E)-1-(2,6,6-trimethylcyclohex-2-en-1-yl)but-2-en-1-one]
[1]; Table 3
  Impact on scalp MOC of fragrance composition: Positive
[2]; [4]
  MO intensity: 3.7

## CC(=O)c1cc2c(cc1C)C(C)(C)C(C)CC2(C)C (stereo not drawn) [1-(3,5,5,6,8,8-hexamethyl-5,6,7,8-tetrahydronaphthalen-2-yl)ethanone]
[1]; Table 3
  Impact on scalp MOC of fragrance composition: Positive
[2]; [4]
  MO intensity: 3

## CCCCCCCC1CCCC(=O)O1 (stereo not drawn) [6-heptyltetrahydro-2H-pyran-2-one]
[1]; Table 3
  Impact on scalp MOC of fragrance composition: Positive
[2]; [4]
  MO intensity: 3

## CCCCCC/C=C/C(=O)OC [(E)-methyl non-2-enoate]
[1]; Table 3
  Impact on scalp MOC of fragrance composition: Positive
[2]; [4]
  MO intensity: 1
[2]; Table 3, gas phase
  Scalp MOC of ingredient alone: No effect

## CC(=O)/C(C)=C/C1C(C)=CCCC1(C)C (stereo not drawn) [(E)-3-methyl-4-(2,6,6-trimethylcyclohex-2-en-1-yl)but-3-en-2-one]
[1]; Table 3
  Impact on scalp MOC of fragrance composition: Positive
[2]; [4]
  MO intensity: 3

## COc1ccc(C=O)cc1 [4-methoxybenzaldehyde]
[1]; Table 3
  Impact on scalp MOC of fragrance composition: Positive
[2]; [4]
  MO intensity: 3

## CC(=O)/C=C/C1C(C)=CCCC1(C)C (stereo not drawn) [(E)-4-(2,6,6-trimethyl-1-cyclohex-2-enyl)but-3-en-2-one]
[1]; Table 4
  Impact on scalp MOC of fragrance composition: Negative
[2]; [3]
  MO intensity: 4.5

## CC1CC(C)(c2ccccc2)CO1 (stereo not drawn) [2,4-dimethyl-4-phenyltetrahydrofuran]
[1]; Table 4
  Impact on scalp MOC of fragrance composition: Negative
[2]; [3]
  MO intensity: 4.1

## C=CCOC(=O)COC1CCCCC1 [allyl 2-(cyclohexyloxy)acetate]
[1]; Table 4
  Impact on scalp MOC of fragrance composition: Negative
[2]; [3]
  MO intensity: 4.3

## CCCCC/C=C\C=C\C(=O)OCC [(2E,4Z)-ethyl deca-2,4-dienoate]
[1]; Table 4
  Impact on scalp MOC of fragrance composition: Negative
[2]; [3]
  MO intensity: 1

## CC/C=C\CC1=C(C)CCC1=O [(Z)-3-methyl-2-(pent-2-en-1-yl)cyclopent-2-enone]
[1]; Table 4
  Impact on scalp MOC of fragrance composition: Negative
[2]; [3]
  MO intensity: 1.8
[2]; Table 4, gas phase
  Scalp MOC of ingredient alone: Low coverage

## CC(C)=CCCC1=CCC(C=O)CC1 (stereo not drawn) [4-(4-methylpent-3-en-1-yl)cyclohex-3-enecarbaldehyde]
[1]; Table 4
  Impact on scalp MOC of fragrance composition: Negative
[2]; [3]
  MO intensity: 1

## CC(C)CC1CC(C)(O)CCO1 (stereo not drawn) [tetrahydro-4-methyl-2-(2-methylpropyl)-2H-pyran-4-ol]
[1]; Table 4
  Impact on scalp MOC of fragrance composition: Negative
[2]; [3]
  MO intensity: 2.2
[2]; Table 4, gas phase
  Scalp MOC of ingredient alone: Low coverage

## O=Cc1ccc2c(c1)OCO2 [benzo[d][1,3]dioxole-5-carbaldehyde]
[1]; Table 3
  Impact on scalp MOC of fragrance composition: Positive
[2]; [4]
  MO intensity: 3

## CCC1OC(C)=C(O)C1=O (stereo not drawn) [2-ethyl-4-hydroxy-5-methylfuran-3(2H)-one]
[1]; Table 4
  Impact on scalp MOC of fragrance composition: Negative
[2]; [3]
  MO intensity: 4.5

## CC(=O)C1(C)CC2=C(CCCC2(C)C)CC1C (stereo not drawn) [1-(2,3,8,8-tetramethyl-1,2,3,4,5,6,7,8-octahydronaphthalen-2-yl)ethanone]
[1]; Table 3
  Impact on scalp MOC of fragrance composition: Positive
[2]; [4]
  MO intensity: 1
[2]; Table 3, gas phase
  Scalp MOC of ingredient alone: No effect

## CC(=O)/C=C/C1=C(C)CCCC1(C)C [(E)-4-(2,6,6-trimethylcyclohex-1-en-1-yl)but-3-en-2-one]
[1]; Table 4
  Impact on scalp MOC of fragrance composition: Negative
[2]; [3]
  MO intensity: 1
